In US20190117555A1, “SUBLINGUAL COMPOSITIONS COMPRISING NATURAL EXTRACTS AND USES THEREOF” (HARMONIC PHARMA, priority 2016, published 2019):

Columns and labels:
[1] = Total AntiOxidant Power (PAOT) assay; settings: for total antioxidant efficacy (PAOT): n=4, FIG. 3 and 4
Experimental: 2.4. Total AntiOxidant Power (PAOT®) Assay (Oxidative Stress)
Technology PAOT/POT® (Total AntiOxidant Power/Total Oxidant Power) is based on the electrochemical nature of redox reactions: a balance between antioxidants and oxidants [www.ie-antioxydants.com]. The assays were carried out in quadruplicate (n=4) (The higher value corresponds to the best antioxidant efficacy).

[2] = Oxygen Radical Absorbance Capacity (ORAC) assay; settings: n=4
Description: 2.3. Oxygen Radical Absorbance Capacity (ORAC) Assay
(Ou B., Hampsch-Woodill M. and Prior R. L.: “Development and Validation of an Improved Oxygen Radical Absorbance Capacity Assay Using Fluorescein as the Fluorescent Probe”, J. Agric. Food Chem., 2001, 49 (10), 4619-4626)
Measurement of antioxidant capacity by the ORAC method is based on the detection of fluorescence drop of fluorescein (FL) thanks to its reaction with peroxyl radical ROO*, in a food matrix containing antioxidant compounds. Fluorescence was read with an excitation wavelength of 485 nm and an emission filter of 528 nm. AAPH solution and FL were prepared in a phosphate buffer solution at 75 mM at pH 7.4. The control of this reaction is the trolox which is also prepared in the same buffer. Six different quantities (10, 20, 35, 50, 70, 80 μl) of product with concentration of 0.5 mg/L were placed in the wells of the microplate with FL and adjusted at the same volume with buffer solution (80 μl). The mixture was preincubated for 30 min at 37° C., before rapidly adding the AAPH solution (220 μl) using a multichannel pipette. The microplate was immediately placed in the reader and the fluorescence recorded every 6 min for 240 min. A blank with FL and AAPH using sodium phosphate buffer instead of the antioxidant solution was used. The inhibition capacity was expressed as reference compound equivalents (μM), and is quantified by integrating of the area under the curve (AUC) of the fluorescein. The assays were carried out in quadruplicate (n=4). Efficacy of the tested samples is expressed as reference ORAC units per gram of products (the higher value corresponds to the stronger antioxidant activity).

[3] = Trolox Equivalent Antioxidant Capacity (TEAC) assay; settings: per 1 g of product; FIG. 2
Experimental: Trolox Equivalent Antioxidant Capacity (TEAC) Assay
ABTS radical cation (ABTS•+) was produced by reacting 7 mM ABTS stock solution with 2.45 mM potassium persulfate and allowing the mixture to stand in the dark at room temperature for 12-16 h before being used. Next ABTS•+solution was diluted with PBS (Phosphate Buffer Saline) (pH 7.4) to an absorbance of 0.5 at 734 nm and equilibrated at 30° C. 200 μl of ABTS•+ and (10, 20, 35, 50, 70, 80 μl) of product solutions (0.5 mg/L) was mixed and adjusted to 300 μl with buffer solution. After 15 min incubation, the optical density was measured. The assays were performed in quadruplicate (n=4). Efficacy is expressed as a value of EC50 (the smaller value of EC50 corresponds to the stronger antioxidant activity).

Human 5-LO = biological target: T1, Human 5-LO (Homo sapiens, UniProt P09917); test: Human 5-LO inhibition assay; format: biochemical; settings: HMR 10 μM; extract equiv. 10 μM
T1 sequence (P09917 1-674): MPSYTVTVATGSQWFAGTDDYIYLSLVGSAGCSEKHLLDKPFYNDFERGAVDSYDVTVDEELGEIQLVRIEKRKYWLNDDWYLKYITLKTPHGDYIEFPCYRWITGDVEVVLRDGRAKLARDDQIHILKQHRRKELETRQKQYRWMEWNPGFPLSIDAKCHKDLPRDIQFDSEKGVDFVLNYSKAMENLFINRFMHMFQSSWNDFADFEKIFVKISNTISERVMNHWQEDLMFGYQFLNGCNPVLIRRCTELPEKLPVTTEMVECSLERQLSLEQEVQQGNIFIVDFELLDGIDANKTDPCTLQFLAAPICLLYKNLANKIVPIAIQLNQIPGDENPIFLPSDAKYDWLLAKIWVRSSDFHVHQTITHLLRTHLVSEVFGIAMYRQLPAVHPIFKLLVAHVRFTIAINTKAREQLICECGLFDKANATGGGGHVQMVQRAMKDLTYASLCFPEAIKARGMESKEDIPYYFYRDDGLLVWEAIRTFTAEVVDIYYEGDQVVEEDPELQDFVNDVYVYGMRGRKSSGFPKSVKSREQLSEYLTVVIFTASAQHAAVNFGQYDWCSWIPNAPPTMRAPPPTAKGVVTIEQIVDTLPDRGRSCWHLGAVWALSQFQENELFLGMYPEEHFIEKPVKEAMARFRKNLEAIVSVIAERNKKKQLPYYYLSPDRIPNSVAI
Experimental: Human 5-LO Inhibition Assay:
The test compound, reference compound or water (control) were preincubated for 5 min at room temperature with 10^4 lysed cells/well in a buffer containing 50 mM Tris-HCl (pH 7.4), 5 mM CaCl2, 2 mM EDTA, 1 μM ATP and 50 nM fluorescent probe dihydrorhodamine 123. The fluorescence intensity was then measured at λex=485 nm and λem=535 nm using a microplate reader (Envision, Perkin Elmer). This measurement at t=0 allowed the detection of any compound interference with the fluorimetric detection method at these wavelengths. Thereafter, the reaction was initiated by adding 25 μM of the substrate arachidonic acid and the mixture was incubated for 20 min at room temperature. The reaction was stopped by adding a buffer containing 67% acetonitrile and 0.2% acetic acid and the fluorescence intensity emitted by the reaction product rhodamine 123 was measured at the same wavelengths (t=20). The enzyme activity was determined by subtracting the signal measured at t=0 from that measured at t=20.
The results are expressed as a percent inhibition of the control activity.

IL-1β = IL-1β release by LPS-stimulated PBMCs (HTRF); format: cell-based; settings: Homo sapiens, PBMC, 5 μg/mL LPS, 24 h, read-out: % inhibition IL-1β (Standard deviation)
Experimental: (§1) Interleukin-1beta (IL-1beta) and tumor necrosis factor-alpha (TNF-alpha) mediate the development of numerous inflammatory diseases. IL-1beta and TNF-alpha therefore constitute suitable biomarkers to characterize the anti-inflammatory property of compounds of the part of branch extracts of the invention.
(§2) Peripheral blood mononuclear cells (PBMCs) were prepared from the peripheral blood of healthy donors (Etablissement Français du Sang) according to Kümmerle et al. (J Med Chem. 2012, 55, 7525-7545) with slight modifications. PBMCs were isolated using Histopaque gradient (Sigma), washed in Hanks' balanced salt solution (Sigma) and were then cultured in RPMI-1640 medium (Sigma) supplemented with 10% (v/v) fetal bovine serum (FBS) (PAA), 100 U/mL penicillin and 100 μg/mL streptomycin (PAA). PBMCs were seeded into 96-well plates (8×10^4 cells/well) and stimulated with 5 μg/mL LPS (Lipopolysaccharides, Sigma), into a total volume of 120 μL per well. HMR was re-suspended in DMSO and tested at 10, 30, and 100 μM (DMSO 1%) in duplicate. […] Cells incubation was realized at 37° C. (5% CO2).
(§3) After 24 h, PBMCs supernatants were transferred into a 384-well plate. Cytokine detection was performed using HTRF technology (Cisbio bioassays) for TNF-α (62TNFPEC), IL-1β (62IL1PEC) according to supplier recommendations. Reading was performed after 3 h of incubation using Envision multi-labelled reader (PerkinElmer) using supplier recommended parameters.

Human COX-2 = biological target: T2, Human COX-2 (Homo sapiens, UniProt P35354); test: Human COX-2 inhibition assay; format: biochemical; settings: HMR 10 μM; extract equiv. 10 μM
T2 sequence (P35354 18-604): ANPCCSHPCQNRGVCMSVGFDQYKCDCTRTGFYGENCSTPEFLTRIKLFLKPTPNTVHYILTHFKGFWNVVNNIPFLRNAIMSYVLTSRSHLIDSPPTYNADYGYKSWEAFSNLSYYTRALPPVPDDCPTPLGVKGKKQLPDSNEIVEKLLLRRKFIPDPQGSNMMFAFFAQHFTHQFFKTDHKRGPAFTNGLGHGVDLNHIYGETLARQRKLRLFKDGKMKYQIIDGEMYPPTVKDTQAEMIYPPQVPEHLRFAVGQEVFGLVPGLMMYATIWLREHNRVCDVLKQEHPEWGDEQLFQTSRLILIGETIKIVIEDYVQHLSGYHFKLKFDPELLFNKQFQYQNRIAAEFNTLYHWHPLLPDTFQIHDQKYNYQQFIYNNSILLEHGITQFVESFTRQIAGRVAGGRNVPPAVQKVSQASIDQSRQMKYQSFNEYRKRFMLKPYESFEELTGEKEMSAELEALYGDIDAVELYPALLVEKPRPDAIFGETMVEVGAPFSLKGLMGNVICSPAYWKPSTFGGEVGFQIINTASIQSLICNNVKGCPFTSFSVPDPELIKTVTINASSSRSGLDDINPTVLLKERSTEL
Description: The results are expressed as a percent inhibition of the control enzyme activity.

TNF-α = TNF-α release by LPS-stimulated PBMCs (HTRF); format: cell-based; settings: Homo sapiens, PBMC, 5 μg/mL LPS, 24 h, read-out: % inhibition TNF-α (Standard deviation)
Experimental: as §1, §2, §3

O=C1OC[C@H](Cc2cccc(O)c2)[C@H]1Cc1cccc(O)c1 [enterolactone]
total antioxidant efficacy (PAOT) [1]: 1.06 mmol/g equivalent of antioxidant
μmol Trolox/g tested product [2]: 560 ± 50 μmol Trolox/g tested product
μmol Vit. C/g tested product [2]: 110 ± 10 μmol Vit. C/g tested product
μmol Vit. E/g tested product [2]: 105 ± 10 μmol Vit. E/g tested product
μmol β-carotene/g tested product [2]: 30 ± 2 μmol β-carotene/g tested produ
antioxidant activity of 1 g of product equivalent to g of trolox [3]: 0.13 g
antioxidant activity of 1 g of product equivalent to g of vitamin E [3]: 0.19 g

COc1cc(C[C@H]2C(=O)OC[C@@H]2[C@H](O)c2ccc(O)c(OC)c2)ccc1O (stereo in doubt) [HMR, Hydroxymatairesinol]
total antioxidant efficacy (PAOT) [1]: 4.99 mmol/g equivalent of antioxidant
antioxidant activity with regard to Trolox ([1]; reference Trolox): 0.62 gram of reference compound per gram of tested product
antioxidant activity with regard to Vitamin E ([1]; reference Vitamin E (tocopherol)): 1.07 gram of reference compound per gram of tested product
antioxidant activity with regard to β-carotene ([1]; reference β-carotene): 2.68 gram of reference compound per gram of tested product
inhibition at 10 µM (Human 5-LO): 14.7%
inhibition at 10 µM (IL-1β; 10 μM): 10%
inhibition at 30 µM (IL-1β; 30 μM): 25%
inhibition at 100 µM (IL-1β; 100 μM): 28%
inhibition at 10 µM (Human COX-2): 18.7%
μmol Trolox/g tested product [2]: 210 ± 50 μmol Trolox/g tested product
μmol Vit. C/g tested product [2]: 110 ± 10 μmol Vit. C/g tested product
μmol Vit. E/g tested product [2]: 105 ± 10 μmol Vit. E/g tested product
μmol β-carotene/g tested product [2]: 27 ± 2 μmol β-carotene/g tested produ
inhibition at 10 µM (TNF-α; 10 μM): 7%
inhibition at 30 µM (TNF-α; 30 μM): 15%
inhibition at 100 µM (TNF-α; 100 μM): 26%

OC[C@H](Cc1cccc(O)c1)[C@H](CO)Cc1cccc(O)c1 [enterodiol]
total antioxidant efficacy (PAOT) [1]: 1.07 mmol/g equivalent of antioxidant
μmol Trolox/g tested product [2]: 500 ± 60 μmol Trolox/g tested product
μmol Vit. C/g tested product [2]: 700 ± 100 μmol Vit. C/g tested product
μmol Vit. E/g tested product [2]: 600 ± 80 μmol Vit. E/g tested product
μmol β-carotene/g tested product [2]: 165 ± 5 μmol β-carotene/g tested produ
antioxidant activity of 1 g of product equivalent to g of trolox [3]: 0.15 g
antioxidant activity of 1 g of product equivalent to g of vitamin E [3]: 0.22 g
